Laboratory results published in patent publication US8415380B2 (Hoffmann-La Roche Inc., priority 2007, dated 2013).

What was measured:
rat mGlu2 receptor = molecular target: T1, rat mGlu2 receptor (Rattus norvegicus, UniProt P31421); experiment: [3H]-LY354740 binding on mGlu2 transfected CHO cell membranes; conditions: 10 nM [3H]-LY354740, mGlu2 transfected CHO cell membranes, room temperature, 1 hour
T1 construct: expressed in transfected cells; membranes prepared
Excerpt: [^3H]-LY354740 Binding on mGlu2 Transfected CHO Cell Membranes Transfection and Cell Culture
cDNA encoding the rat mGlu2 receptor protein in pBluescript II was subcloned into the eukaryotic expression vector pcDNA I-amp from Invitrogen Ltd (Paisley, UK). This vector construct (pcD1mGR^2) was co-transfected with a psvNeo plasmid encoding the gene for neomycin resistance, into CHO cells by a modified calcium phosphate method described by Chen & Okayama (1988). The cells were maintained in Dulbecco's Modified Eagle medium with reduced L-glutamine (1 mM final concentration), 36 mg/L L-Proline and 10% dialysed foetal calf serum from Gibco-Invitrogen; the medium was supplemented with 500 microM α-methyl-4-carboxyphenylglycine (MCPG). Selection was made in the presence of G-418 (300 ug/ml final concentration). Clones were identified by reverse transcription of 5 μg total RNA, followed by PCR using mGlu2 receptor specific primers 5′-[…]-3′ and 5′-[…]-3′ in 60 mM Tris HCl (pH 10), 15 mM (NH4)2SO4, 2 mM MgCl2, 25 units/ml Taq Polymerase with 30 cycles annealing at 60° C. for 1 min., extention at 72° C. for 30 s, and 1 min. 95° C. denaturation.
Cells, cultured as above, were harvested and washed three times with cold PBS and frozen at −80° C. The pellet was resuspended in cold 20 mM HEPES-NaOH buffer containing 10 mM EDTA (pH 7.4), and homogenised with a polytron (Kinematica, A G, Littau, Switzerland) for 10 s at 10 000 rpm. After centrifugation for 30 min. at 4° C., the pellet was washed once with cold 20 mM HEPES-NaOH buffer containing 0.1 mM EDTA, (pH 7.4). After a second centrifugation for 30 min. at 4° C. the pellet was resuspended in cold 20 mM HEPES-NaOH buffer containing 0.1 mM EDTA, (pH 7.4). Protein content was measured using the Micro BCA method from Pierce-Perbio (Rockford, Ill., USA) using bovine serum albumin as standard.
After thawing, the membranes were resuspended in cold 50 mM Tris-HCl buffer containing 2 mM MgCl2 (pH 7.4) (binding buffer). The final concentration of the membranes in the assays was 25 μg protein/ml. Inhibition experiments were performed with membranes incubated with 10 nM [^3H]-LY354740 at room temperature, for 1 hour, in presence of various concentrations of the compound to be tested. Following the incubations, membranes were filtered onto Whatmann GF/B glass fiber filters or onto GF/B Unifilter plates and washed 5 times with cold binding buffer. Non specific binding was measured in the presence of 10 μM (2S,2′R,3′R)-2-(2′3′-Dicarboxycyclopropyl)glycine (DCG IV from Tocris, Ellisville, Mo. USA). After transfer of the filters into plastic vials containing 10 ml of Ultima-gold scintillation fluid from Perkin-Elmer (Boston, Mass., USA), the radioactivity was measured by liquid scintillation in a Tri-Carb 2500 TR counter (Packard, Zurich, Switzerland). For 96-Unifilter plates the radioactivity was measured after addition of Microscint 40 scintillation fluid (Perkin Elmer, Boston Mass.) using a TopCount NXT (Packard)
The inhibition curves were fitted with a four parameter logistic equation giving IC50 values, and Hill coefficients.

T1 sequence (P31421 19-872): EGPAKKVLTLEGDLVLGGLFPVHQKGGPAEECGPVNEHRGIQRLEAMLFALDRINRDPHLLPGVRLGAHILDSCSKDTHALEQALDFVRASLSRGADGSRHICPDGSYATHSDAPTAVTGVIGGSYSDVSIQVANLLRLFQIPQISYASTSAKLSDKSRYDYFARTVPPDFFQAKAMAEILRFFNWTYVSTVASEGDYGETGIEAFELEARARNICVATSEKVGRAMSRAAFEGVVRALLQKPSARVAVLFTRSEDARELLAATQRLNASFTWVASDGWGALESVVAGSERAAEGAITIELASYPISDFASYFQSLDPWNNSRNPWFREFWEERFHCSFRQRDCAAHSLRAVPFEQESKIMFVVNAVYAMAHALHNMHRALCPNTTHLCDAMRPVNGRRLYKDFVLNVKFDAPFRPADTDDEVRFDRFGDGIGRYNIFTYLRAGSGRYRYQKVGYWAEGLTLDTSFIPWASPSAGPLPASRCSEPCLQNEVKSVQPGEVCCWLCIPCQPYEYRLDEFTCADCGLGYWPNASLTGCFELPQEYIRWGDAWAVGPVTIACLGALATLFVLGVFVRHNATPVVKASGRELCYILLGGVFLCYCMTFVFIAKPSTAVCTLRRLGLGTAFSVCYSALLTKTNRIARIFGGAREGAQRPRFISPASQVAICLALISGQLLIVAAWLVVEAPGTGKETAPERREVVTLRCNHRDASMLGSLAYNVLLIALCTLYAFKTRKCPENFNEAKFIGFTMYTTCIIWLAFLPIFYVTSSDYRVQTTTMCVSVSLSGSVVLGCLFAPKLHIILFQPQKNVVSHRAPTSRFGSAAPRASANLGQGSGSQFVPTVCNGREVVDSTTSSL

## Cc1cc(-c2ccc(C(F)(F)F)cn2)nc(-c2cccc(-c3cccc(S(N)(=O)=O)c3)n2)n1 [Example 27, 3-{6-[4-Methyl-6-(5-trifluoromethyl-pyridin-2-yl)-pyrimidin-2-yl]-pyridin-2-yl}-benzenesulfonamide]
other
  melting point: 246 to 252 °C

## Cc1cc(-c2ccc(C(F)(F)F)nc2)nc(-c2cccc(-c3ccc(S(N)(=O)=O)s3)c2)n1 [Example 24, 5-{3-[4-Methyl-6-(6-trifluoromethyl-pyridin-3-yl)-pyrimidin-2-yl]-phenyl}-thiophene-2-sulfonic acid amide]
other
  melting point: 237.5 °C

## NS(=O)(=O)c1cccc(-c2cccc(-c3nc(-c4ccc(C(F)(F)F)nc4)cc(C(F)F)n3)c2)c1 [Example 15, 3′-[4-Difluoromethyl-6-(6-trifluoromethyl-pyridin-3-yl)-pyrimidin-2-yl]-biphenyl-3-sulfonic acid amide]
other
  melting point: 222 °C

## CCC(=O)NS(=O)(=O)c1cccc(-c2cc(-c3nc(-c4ccc(C(F)(F)F)nc4)cc(C(F)(F)F)n3)ccn2)c1 [Example 11, N-Propionyl-3-{4-[4-trifluoromethyl-6-(6-trifluoromethyl-pyridin-3-yl)-pyrimidin-2-yl]-pyridin-2-yl}-benzenesulfonamide]
other
  melting point: 242 °C

## NS(=O)(=O)c1cccc(-c2cc(-c3nc(-c4ccc(C(F)(F)F)nc4)cc(C(F)F)n3)ccn2)c1 [Example 16, 3-{4-[4-Difluoromethyl-6-(6-trifluoromethyl-pyridin-3-yl)-pyrimidin-2-yl]-pyridin-2-yl}-benzenesulfonamide]
other
  melting point: 264.5 °C

## Nc1ccc(-c2cccc(-c3nc(-c4ccc(C(F)(F)F)nc4)cc(C(F)(F)F)n3)c2)cn1 [Example 12, 5-{3-[4-Trifluoromethyl-6-(6-trifluoromethyl-pyridin-3-yl)-pyrimidin-2-yl]-phenyl}-pyridin-2-ylamine]
other
  melting point: 244 °C
Rat mGlu2 receptor
  Ki: 0.0033 µM

## Cc1cc(-c2ccc(C(F)(F)F)nc2)nc(-c2ccnc(-c3ccc(S(N)(=O)=O)s3)c2)n1 [Example 22, 5-{4-[4-Methyl-6-(6-trifluoromethyl-pyridin-3-yl)-pyrimidin-2-yl]-pyridin-2-yl}-thiophene-2-sulfonic acid amide]
other
  melting point: 289 °C

## Cc1cc(-c2ccc(C(F)(F)F)nc2)nc(-n2cnc(-c3ccc(N)nc3)c2)n1 [Example 20, 5-{1-[4-Methyl-6-(6-trifluoromethyl-pyridin-3-yl)-pyrimidin-2-yl]-1H-imidazol-4-yl}-pyridin-2-ylamine]
other
  melting point: 220 °C
Rat mGlu2 receptor
  Ki: 0.062 µM

## Nc1ccc(-c2cc(-c3nc(-c4ccc(C(F)(F)F)nc4)cc(C(F)(F)F)n3)ccn2)cn1 [Example 8, 4-[4-Trifluoromethyl-6-(6-trifluoromethyl-pyridin-3-yl)-pyrimidin-2-yl]-[2,3′]bipyridinyl-6′-ylamine]
other
  melting point: 261.5 °C
Rat mGlu2 receptor
  Ki: 0.0156 µM

## Cc1cc(-c2ccc(C(F)(F)F)nc2)cc(-c2cccc(-c3cccc(S(N)(=O)=O)c3)c2)n1 [Example 34, 3′-(6′-Methyl-6-trifluoromethyl-[3,4′]bipyridinyl-2′-yl)-biphenyl-3-sulfonic acid amide]
other
  melting point: 227 to 232 °C

## NS(=O)(=O)c1cccc(-c2cn(-c3nc(-c4ccc(Cl)s4)cc(C(F)(F)F)n3)cn2)c1 [Example 1, 3-{1-[4-(5-Chloro-thiophen-2-yl)-6-trifluoromethyl-pyrimidin-2-yl]-1H-imidazol-4-yl}-benzenesulfonamide]
other
  melting point: 189 °C
Rat mGlu2 receptor
  Ki: 0.0116 µM

## Cc1cc(-c2ccc(C(F)(F)F)nc2)cc(-c2cccc(-c3cccc(S(=O)(=O)NC(C)(C)C)c3)n2)n1 [Example 29, N-tert-Butyl-3-(6′-methyl-6″-trifluoromethyl-[2,2′;4′,3″]terpyridin-6-yl)-benzenesulfonamide]
other
  melting point: 187 to 188 °C
Rat mGlu2 receptor
  Ki: 0.026 µM

## Nc1ncc(-c2cccc(-c3nc(-c4ccc(Cl)s4)cc(C(F)(F)F)n3)c2)cn1 [Example 6, 5-{3-[4-(5-Chloro-thiophen-2-yl)-6-trifluoromethyl-pyrimidin-2-yl]-phenyl}-pyrimidin-2-ylamine]
other
  melting point: 228 °C

## Cc1cc(-c2ccc(C(F)(F)F)nc2)cc(-c2cccc(-c3ccc(S(N)(=O)=O)s3)c2)n1 [Example 35, 5-[3-(6′-Methyl-6-trifluoromethyl-[3,4′]bipyridinyl-2′-yl)-phenyl]-thiophene-2-sulfonic acid amide]
other
  melting point: 231 to 233 °C

## Cc1cc(-c2ccc(C(F)(F)F)nc2)nc(-c2cccc(-c3cccc(S(N)(=O)=O)c3)n2)n1 [Example 28, 3-{6-[4-Methyl-6-(6-trifluoromethyl-pyridin-3-yl)-pyrimidin-2-yl]-pyridin-2-yl}-benzenesulfonamide]
other
  melting point: 254 °C

## NS(=O)(=O)c1ccc(-c2cc(-c3nc(-c4ccc(C(F)(F)F)nc4)cc(C(F)F)n3)ccn2)s1 [Example 17, 5-{4-[4-Difluoromethyl-6-(6-trifluoromethyl-pyridin-3-yl)-pyrimidin-2-yl]-pyridin-2-yl}-thiophene-2-sulfonic acid amide]
other
  melting point: 269.5 °C
Rat mGlu2 receptor
  Ki: 0.0035 µM

## NS(=O)(=O)c1cccc(-c2cccc(-c3nc(-c4ccc(C(F)(F)F)nc4)cc(C(F)(F)F)n3)c2)c1 [Example 2, 3′-[4-Trifluoromethyl-6-(6-trifluoromethyl-pyridin-3-yl)-pyrimidin-2-yl]-biphenyl-3-sulfonic acid amide]
other
  melting point: 211 °C
Rat mGlu2 receptor
  Ki: 0.0018 µM

## Cc1cc(-c2ccc(C(F)(F)F)cn2)nc(-c2cccc(-c3cccc(S(=O)(=O)NC(C)(C)C)c3)n2)n1 [Example 25]
Rat mGlu2 receptor
  Ki: 0.105 µM

## NS(=O)(=O)c1cccc(-c2cccc(-c3nc(-c4ccc(Cl)s4)cc(C(F)(F)F)n3)c2)c1 [Example 4, 3′-[4-(5-Chloro-thiophen-2-yl)-6-trifluoromethyl-pyrimidin-2-yl]-biphenyl-3-sulfonic acid amide]
other
  melting point: 226.5 °C
Rat mGlu2 receptor
  Ki: 0.0143 µM

## Cc1cc(-c2ccc(C(F)(F)F)nc2)nc(-c2cccc(-c3cccc(S(N)(=O)=O)c3)c2)n1 [Example 23, 3′-[4-Methyl-6-(6-trifluoromethyl-pyridin-3-yl)-pyrimidin-2-yl]-biphenyl-3-sulfonic acid amide]
other
  melting point: 220 °C

## NS(=O)(=O)c1cccc(-c2cc(-c3nc(-c4ccc(C(F)(F)F)nc4)cc(C(F)(F)F)n3)ccn2)c1 [Example 9, 3-{4-[4-Trifluoromethyl-6-(6-trifluoromethyl-pyridin-3-yl)-pyrimidin-2-yl]-pyridin-2-yl}-benzenesulfonamide]
other
  melting point: 258 °C
Rat mGlu2 receptor
  Ki: 0.0053 µM

## Nc1ccc(-c2cn(-c3nc(-c4ccc(C(F)(F)F)nc4)cc(C(F)F)n3)cn2)cn1 [Example 14, 5-{1-[4-Difluoromethyl-6-(6-trifluoromethyl-pyridin-3-yl)-pyrimidin-2-yl]-1H-imidazol-4-yl}-pyridin-2-ylamine]
other
  melting point: 258 °C

## NS(=O)(=O)c1ccc(-c2cccc(-c3nc(-c4ccc(C(F)(F)F)nc4)cc(C(F)F)n3)c2)s1 [Example 18, 5-{3-[4-Difluoromethyl-6-(6-trifluoromethyl-pyridin-3-yl)-pyrimidin-2-yl]-phenyl}-thiophene-2-sulfonic acid amide]
other
  melting point: 245.5 °C

## Cc1cc(-c2ccc(C(F)(F)F)nc2)nc(-c2ccnc(-c3cccc(S(N)(=O)=O)c3)c2)n1 [Example 21, 3-{4-[4-Methyl-6-(6-trifluoromethyl-pyridin-3-yl)-pyrimidin-2-yl]-pyridin-2-yl}-benzenesulfonamide]
other
  melting point: 255 °C

## NS(=O)(=O)c1ccc(-c2cccc(-c3nc(-c4ccc(Cl)s4)cc(C(F)(F)F)n3)c2)s1 [Example 7, 5-{3-[4-(5-Chloro-thiophen-2-yl)-6-trifluoromethyl-pyrimidin-2-yl]-phenyl}-thiophene-2-sulfonic acid amide]
other
  melting point: 233 °C
